Data on one compound can be found in PMC11357638 (Molecules, 2024).

Where “and” joins values, the source holds several entries; their conditions need not be identical. Equal entries are not always repeated.

What is called IC50 is the point on the concentration scale where inhibition reaches its midpoint.

In experiment [1] the target is T1, human TRPV3 (hTRPV3) channel (Homo sapiens, UniProt Q8NET8).
T1 construct: expressed in transfected cells; host or cells: HEK293T
T1 sequence (Q8NET8 1-790): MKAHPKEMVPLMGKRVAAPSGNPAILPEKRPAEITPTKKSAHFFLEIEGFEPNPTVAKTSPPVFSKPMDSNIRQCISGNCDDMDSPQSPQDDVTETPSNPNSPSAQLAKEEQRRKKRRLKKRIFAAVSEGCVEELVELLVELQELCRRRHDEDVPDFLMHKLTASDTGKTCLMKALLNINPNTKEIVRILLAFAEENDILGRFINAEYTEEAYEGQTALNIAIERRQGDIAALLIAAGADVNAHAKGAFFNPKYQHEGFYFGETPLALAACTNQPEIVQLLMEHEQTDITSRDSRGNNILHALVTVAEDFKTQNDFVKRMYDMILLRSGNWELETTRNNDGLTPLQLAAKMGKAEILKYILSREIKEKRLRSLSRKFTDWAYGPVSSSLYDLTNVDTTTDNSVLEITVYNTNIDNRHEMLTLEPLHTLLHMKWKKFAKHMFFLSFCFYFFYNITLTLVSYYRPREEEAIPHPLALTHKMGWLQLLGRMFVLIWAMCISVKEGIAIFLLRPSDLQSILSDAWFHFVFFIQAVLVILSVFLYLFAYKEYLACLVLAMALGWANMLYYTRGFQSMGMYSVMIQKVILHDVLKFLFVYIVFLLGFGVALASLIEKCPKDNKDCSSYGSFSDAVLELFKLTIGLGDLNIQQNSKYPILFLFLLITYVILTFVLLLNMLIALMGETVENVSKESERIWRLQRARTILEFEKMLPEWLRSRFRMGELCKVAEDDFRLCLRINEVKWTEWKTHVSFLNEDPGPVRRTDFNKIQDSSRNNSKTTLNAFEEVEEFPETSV
Put plainly: Whole-cell patch-clamp of hTRPV3 currents in transfected HEK293T cells. The format is cell-based. Conditions: WT hTRPV3 in HEK293T, whole-cell, activated by 50 μM 2-APB, at +80 mV, Hill fit, mean ± SD; read-out: IC50, inhibition of hTRPV3 currents. A general note: Patch clamp records ionic current or voltage across a cell membrane.

The target in experiment [2] is T2, human TRPA1 (hTRPA1) channels (Homo sapiens, UniProt O75762).
T2 construct: expressed in transfected cells; host or cells: HEK293T
T2 sequence (O75762 whole entry): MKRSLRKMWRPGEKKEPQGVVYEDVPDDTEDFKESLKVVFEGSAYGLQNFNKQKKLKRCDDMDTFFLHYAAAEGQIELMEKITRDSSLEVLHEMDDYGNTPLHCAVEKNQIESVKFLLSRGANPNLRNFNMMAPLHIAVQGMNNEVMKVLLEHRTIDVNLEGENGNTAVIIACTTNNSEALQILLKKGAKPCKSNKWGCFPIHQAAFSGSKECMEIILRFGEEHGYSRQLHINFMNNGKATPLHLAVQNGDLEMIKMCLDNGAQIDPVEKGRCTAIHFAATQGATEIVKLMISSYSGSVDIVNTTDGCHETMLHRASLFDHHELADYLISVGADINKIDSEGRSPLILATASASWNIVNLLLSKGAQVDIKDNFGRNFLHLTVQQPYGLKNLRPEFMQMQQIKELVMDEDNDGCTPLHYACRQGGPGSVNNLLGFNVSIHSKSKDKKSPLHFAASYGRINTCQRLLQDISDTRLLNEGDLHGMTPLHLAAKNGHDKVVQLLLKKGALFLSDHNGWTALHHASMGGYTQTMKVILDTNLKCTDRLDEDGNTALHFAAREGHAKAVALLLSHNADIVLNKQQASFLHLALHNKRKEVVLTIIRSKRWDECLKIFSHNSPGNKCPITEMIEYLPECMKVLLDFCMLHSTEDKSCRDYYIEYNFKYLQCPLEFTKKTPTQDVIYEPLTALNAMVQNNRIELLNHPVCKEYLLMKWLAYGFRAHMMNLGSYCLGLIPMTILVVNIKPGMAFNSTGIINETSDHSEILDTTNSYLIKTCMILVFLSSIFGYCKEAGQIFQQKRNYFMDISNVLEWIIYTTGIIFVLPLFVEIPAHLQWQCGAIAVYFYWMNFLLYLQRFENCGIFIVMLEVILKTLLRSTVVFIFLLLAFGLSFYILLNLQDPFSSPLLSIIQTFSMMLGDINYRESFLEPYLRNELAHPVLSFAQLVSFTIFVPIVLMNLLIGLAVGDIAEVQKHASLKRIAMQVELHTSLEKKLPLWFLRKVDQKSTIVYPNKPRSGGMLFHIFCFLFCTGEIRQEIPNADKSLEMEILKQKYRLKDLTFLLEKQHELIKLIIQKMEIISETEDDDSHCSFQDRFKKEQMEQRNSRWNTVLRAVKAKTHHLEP
The experiment can be described thus: Whole-cell patch-clamp selectivity, hTRPA1 in HEK293T cells. The format is cell-based. The following applies: CA at 1000 μM, current induced by AITC at 300 μM, mean ± SD, n = 5.

Regarding `O=C(O)/C=C/c1ccc(O)c(O)c1` [CA, caffeic acid], the IC50 in experiment [1] is 102 µM and ~100 µM. Also, the “inhibition of human TRPA1 current” value in experiment [2] is given as “about 22.9 ± 12.0%”.
